Here are results for one compound from patent US9308284B2, “Formulations of fluorinated stilbene suitable for PET imaging” (PIRAMAL IMAGING SA, priority 2011, dated 2016).

The structures appear in SMILES notation.

Data set [1] can be described thus: Stability of Formulation 1 comprising HCl salt of Compound 1 for 12 hours at room temperature. In kind it is physicochemical. The protocol:
The term “concentration interval of compound 2” as used herein is corrected for the decay of fluorine-18.
Formulation 1 was prepared containing 3 μg/mL of Compound 1 (according to 3.3 μg/mL HCl salt of compound 1). The assay was analysed after preparation and after 12 hours storage according to the short shelf life of PET imaging tracer, typically expected between 6 and 10 hours. Eight individual batches were prepared and analysed for assay.
Table 1 indicates the results of stability testing after 12 hours of n=8 individually manufactured batches.
Minisart HY 0.2 μm is a sterile filter with PTFE hydrophobic membrane.

Data set [2] in a line: Hydrophobic filters and adsorption: Compound 1 concentration before and after sterile filtration of 10 mL Formulation 1. The format is physicochemical. The settings on record: for Filtrate (%) / Adsorption: n=6. The protocol:
Formulation 1 comprising compound 1 was prepared as indicated above and filtered using selected sterile filters. Adsorption of compound 1 was determined by measuring the concentration of Compound 1 before and after filtration of 10 mL of Formulation 1 and subsequent calculation of the adsorption. Table 2 indicates the results of adsorption experiments using different filters.

Where [3] appears, read: Formulation 1, Pall HP2002 0.2 μm, Versapor R hydrophobic.

`CNc1ccc(/C=C/c2ccc(OCCOCCOCCF)cc2)cc1` [Compound 1]: the “Visual Inspection” value in data set [1] (Formulation 1, 3 μg/mL Compound 1 (3.3 μg/mL HCl salt), 12 h storage at RT, n=8 batches) is “clear”. The ΔFiltration in % in data set [1] (Formulation 1, 12 h at RT, n=8, Minisart HY 0.2 μm) is reported as 1.9%. The “Content of Compound 1 in % after 12 h, after filtration (Minisart HY 0.2 μm)” value in data set [1] (Formulation 1, 12 h at RT, n=8, PTFE sterile filter, relative to concentration after preparation) is 97.0%. The “Content of Compound 1 in % after 12 h, prior filtration” value in data set [1] (Formulation 1, 12 h at RT, n=8, relative to concentration after preparation (2.97 to 3.14 μg/mL)) came out at 98.9%. The “Chemical stability in the formulation” value in data set [1] (Formulation 1, 12 hours, RT) is reported as “chemically stable”. The “Filtrate (%)” value stood at 94.0 ± 0.7% in data set [2] (Formulation 1, Millex GV 0.22 μm (Millipore, SLGV033RS), PVDF); 98.8 ± 0.6% in data set [2] (Formulation 1, Minisart HY 0.2 μm (Sartorius Stedim, 16596-HYK), PTFE); 63.9 ± 1.8% in data set [2] (Formulation 1, Minisart High Flow 0.2 μm (Sartorius Stedim, 16532), polyethersulfone); 99.4 ± 0.3% in data set [2] (Formulation 1, Minisart SRP25 0.2 μm (Sartorius Stedim, 17575), PTFE); 85.8 ± 0.3% in data set [2] (setting [3]). The Adsorption in data set [2] (Formulation 1, Millex GV 0.22 μm (SLGV033RS), PVDF) amounted to 6.0%; in data set [2] (Formulation 1, Minisart HY 0.2 μm (16596-HYK), PTFE) it was 1.2%; in data set [2] (Formulation 1, Minisart High Flow 0.2 μm (16532), polyethersulfone) it was 36.1%; in data set [2] (Formulation 1, Minisart SRP25 0.2 μm (17575), PTFE), 0.6%; in data set [2] (setting [3]), 14.2%. Further, the “Amount of compound 1 adsorbed onto the filter material” value in data set [2] (filter units containing PTFE and PVDF) was “low amount”.
